Experimental data from patent publication US20250034165A1, “COMPOUND CONTAINING CYCLOALKYL OR HALOALKYL” (CHIA TAI TIANQING PHARMACEUTICAL GROUP CO., LTD., priority 2021, published 2025).

Assays:
[1] = biological target: EGFR (d746-750/T790M/C797S) (Homo sapiens (Human), UniProt P00533, C797S/DEL746-750/T790M); experiment: Inhibitory activity for EGFR (d746-750/T790M/C797S) kinase; type: biochemical; settings: ATP 5 μM; read-out: EGFR(d19/T790M/C797S) (IC50)
Procedure, shortened: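 EGFR d746-750/T790M/C797S (0.03 ng/μL final) preincubated 30 min with compound (10 nM–0.0024 nM, 4-fold, 7 points). Reaction with 5 μM ATP and 0.1 μM ULight-poly GT, 2 h at room temperature; EDTA stop, Eu-anti-phosphotyrosine TR-FRET read at 665 nm, IC50 by four-parameter fit.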

[2] = tested on: BAF3-EGFR (L858R/T790M/C797S) cells; experiment: Inhibition of proliferation of BAF3-EGFR (L858R/T790M/C797S) cells, CCK-8; type: cell-based; settings: Ba/F3 EGFR, 72 h, read-out: BAF3(EGFR T790M L858R C797S) cell inhibitory activity IC50
Procedure, shortened: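 BaF3 EGFR L858R/T790M/C797S cells seeded at 1.5×10^5 cells/mL in RPMI + 10% FBS, 37 °C, compound added after overnight, duplicates. Viability by CCK-8; % inhibition vs untreated and blank, IC50 by four-parameter fit.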

[3] = tested on: PC-9 EGFR-Del19-T790M-C797S cells; experiment: Inhibition of proliferation of PC-9-EGFR (Del19 T790M C797S) cells, CCK-8; type: cell-based; settings: 72 h, read-out: PC-9-EGFR (Del19 T790M C797S) cell inhibitory activity IC50
Procedure: PC-9 EGFR-Del19-T790M-C797S cells in the logarithmic growth phase and good conditions were taken, washed with PBS, digested with pancreatin, terminated with a complete medium, collected and added to a centrifuge tube, adjusted to a cell density of 2×10^4 cells/mL, and seeded in a 96-well plate (100 μL/well). Meanwhile, compounds were loaded using a nanoliter pipettor resulting in the final concentrations of the compounds of 1000 nM-0.06 nM, and a control was set, replicate wells for each concentration. After 72 h of incubation in the cell incubator, the assay reagent CCK-8 (manufacturer: Dojindo Laboratories, Beijing; 10 μL/well) was added. After 2 h of incubation in the cell incubator, absorbance was measured at 450 nm on a PerkinElmer Envision microplate reader, and the inhibition rate was calculated.
(§1) Inhibition rate (%)=(mean value of negative control group-mean value of experimental group)/(mean value of negative control group−mean value of blank group)×100%.
(§2) A dose-response curve was fitted by four-parameter analysis, with the logarithm of compound concentration serving as abscissa and inhibition rate serving as ordinate, such that IC50 was calculated.

[4] = In vitro stability in liver microsomes; type: in vitro ADME; settings: Human liver microsome
Procedure: 300 μL of the final incubation system contains 30 μL of liver microsomes (protein concentration: 0.15 mg/mL), 30 μL of NADPH+MgCl2, 3 μL of the test compound (in acetonitrile), and 237 μL of PBS buffer (pH 7.4). The proportion of the organic solvent (acetonitrile) was 1%. Samples were prepared in duplicate of 0.3 mL for each species (e.g., human or mouse liver microsomes). Tubes each containing 270 μL of a mixed solution of substrate and enzyme […] were pre-incubated at 37° C. for 5 min. 30 μL of NADPH+MgCl2 was added and the mixture was mixed. 50 μL of the mixture was taken at 0 min, 15 min, 30 min, and 60 min, and 300 μL of glacial acetonitrile containing an internal standard was added to terminate the reaction.
50 μL of the incubated sample was added with 300 μL of glacial acetonitrile containing an internal standard (20 ng/mL diazepam) for precipitation. The mixture was vortexed for 5 min, and centrifuged (12,000 rpm, 4° C.) for 10 min. 75 μL of supernatant was taken and diluted with 75 μL of ultrapure water. After being homogeneously mixed, 0.5 μL of the resulting sample was injected for analysis.

[5] = biological target: EGFR (d746-750 (d19)/T790M) (Homo sapiens (Human), UniProt P00533, DEL746-750/T790M); experiment: Inhibitory activity for EGFR (d746-750 (d19)/T790M) kinase; type: biochemical; settings: ATP 5 μM
Procedure, shortened: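 Recombinant EGFR d746-750/T790M (0.003 ng/μL final) preincubated 30 min with compound (10 to 0.0024 nM, 4-fold steps), then 5 μM ATP and 0.1 μM ULight-poly GT added for 2 h at room temperature. EDTA stop, Eu-anti-phosphotyrosine TR-FRET read (665 nm); IC50 by four-parameter fit.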

[6] = In vivo pharmacokinetics in ICR mice; settings: mouse, plasma, PO, 10 mg/kg intragastric; for AUC(0-t): read-out: AUC(0-t); for Cmax: read-out: Cmax; for MRT last: read-out: MRT(0-t); for Tmax: read-out: Tmax; for half-life: read-out: T½ (converted)
Procedure: The animals to be tested (ICR mice) were fasted for 12 h before administration and food was provided 4 h after administration, and water was freely drunk before and after the experiment and during the experiment.
After intragastric administration, about 0.1 mL of blood was collected from the orbit at 0 min, 15 min, 30 min, 1 h, 2 h, 4 h, 6 h, 8 h, 10 h, and 24 h. After anticoagulation with EDTA-K2, blood samples were transferred to a centrifuge within 30 min, and centrifuged at 4000 rpm for 10 min at 4° C. to separate the plasma. All the plasma samples were collected and immediately stored at −20° C. for testing.
300 μL of acetonitrile solution containing an internal standard ([…] diazepam) was added to 20 μL of the plasma sample to be tested and a standard curve sample. The mixture was shaken and homogeneously mixed for 5 min, and centrifuged at 12,000 rpm for 10 min. 70 μL of supernatant was taken and diluted with 70 μL of ultrapure water. After being mixed well, 2 μL of the resulting sample was subjected to LC/MS/MS, and a chromatogram was recorded.

[7] = tested on: BAF3-EGFR (del19/T790M/C797S) cells; experiment: Inhibition of proliferation of BAF3-EGFR (Del19/T790M/C797S) cells, CCK-8; type: cell-based; settings: Ba/F3 EGFR-Del19/T790M/C797S, 72 h, read-out: BAF3(EGFR T790M Del19 C797S) cell inhibitory activity IC50
Procedure: A flask of BAF3-EGFR (del19/T790M/C797S) cells in the logarithmic growth phase and good conditions was taken, and the cells were collected and added to a centrifuge tube. 20 μL of cells were taken and counted, and the required number of cells (mL) was pipetted and centrifuged at 1200 rpm for 3 min. The supernatant was discarded, and an appropriate amount of plating medium (RPMI medium+10% FBS) was added to adjust the cell density to 1.0×10^5 cells/mL. The cells were seeded on a 96-well plate at 100 μL/well using a multi-channel pipette and cultured in a cell incubator at 37° C., 5% CO2 with saturated humidity. After overnight incubation, compounds were loaded using a nanoliter pipettor, 2 duplicate wells were set for each concentration, and cells without compound added were used as negative controls.
as §1, §2

Chain of EGFR (d746-750/T790M/C797S) (P00533 other isoform, or with tags, fused parts or gaps T790M/C797S/del 1-694/del 746-750 limits assumed): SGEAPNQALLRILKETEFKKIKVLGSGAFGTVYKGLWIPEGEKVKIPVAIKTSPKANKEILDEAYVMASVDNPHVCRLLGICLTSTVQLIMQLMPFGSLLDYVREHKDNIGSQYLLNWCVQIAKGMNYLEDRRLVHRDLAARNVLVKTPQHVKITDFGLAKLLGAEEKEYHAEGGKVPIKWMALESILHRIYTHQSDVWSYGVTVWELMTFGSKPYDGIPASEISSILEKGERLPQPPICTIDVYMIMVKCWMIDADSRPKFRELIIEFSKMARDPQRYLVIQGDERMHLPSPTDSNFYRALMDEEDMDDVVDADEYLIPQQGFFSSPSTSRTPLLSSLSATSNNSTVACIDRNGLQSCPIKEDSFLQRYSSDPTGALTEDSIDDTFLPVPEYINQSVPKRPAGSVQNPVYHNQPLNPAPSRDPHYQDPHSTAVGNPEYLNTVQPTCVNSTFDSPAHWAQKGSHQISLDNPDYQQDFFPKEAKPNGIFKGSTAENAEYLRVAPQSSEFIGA
Chain of EGFR (d746-750 (d19)/T790M) (P00533 other isoform, or with tags, fused parts or gaps T790M/del 1-668/del 746-750 limits assumed): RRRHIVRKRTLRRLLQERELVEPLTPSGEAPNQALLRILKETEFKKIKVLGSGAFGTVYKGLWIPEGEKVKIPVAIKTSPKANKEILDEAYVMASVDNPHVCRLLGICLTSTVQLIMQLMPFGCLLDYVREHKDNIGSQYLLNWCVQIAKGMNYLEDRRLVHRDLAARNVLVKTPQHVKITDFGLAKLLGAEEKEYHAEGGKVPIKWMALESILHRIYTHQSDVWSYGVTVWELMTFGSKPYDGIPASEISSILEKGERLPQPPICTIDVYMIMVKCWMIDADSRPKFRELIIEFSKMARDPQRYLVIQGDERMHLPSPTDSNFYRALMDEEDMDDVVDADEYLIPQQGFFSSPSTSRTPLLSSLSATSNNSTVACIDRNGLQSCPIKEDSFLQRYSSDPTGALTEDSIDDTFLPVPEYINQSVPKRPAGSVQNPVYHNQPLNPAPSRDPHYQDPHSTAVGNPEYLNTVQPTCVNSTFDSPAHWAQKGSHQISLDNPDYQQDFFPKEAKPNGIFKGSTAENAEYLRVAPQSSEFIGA

| SMILES | IC50 [1] | IC50 [2] | IC50 [3] | Stability in liver microsomes (residual %, T = 60 min) [4] | IC50 [5] | IC50 [7] | other results |
| --- | --- | --- | --- | --- | --- | --- | --- |
| Cc1cc2cc(n1)-c1cnn(C)c1OCCC[C@@H](C1CC1)CN1/C(=N/C2=O)Nc2cc(N[C@H]3C[C@@H](N(C)C)C3)ccc21 [Example 125] | 0.08 nM | – | – | 93.95% | – | – | – |
| Cc1cc2cc(n1)-c1cnn(C)c1OCCC[C@@H](C1CC1)CN1/C(=N/C2=O)Nc2cc(NC3CN(C)C3)ccc21 [Example 33] | 0.015 nM | – | – | 83.39% | 0.0098 nM | – | – |
| [2H]C([2H])([2H])N(C[C@H](C)Nc1ccc2c(c1)N/C1=N/C(=O)c3cc(C)nc(c3)-c3cnn(C)c3OCCC[C@@H](C3CC3)CN12)C([2H])([2H])[2H] [Example 124] | 0.12 nM | – | – | 77.10% | – | – | – |
| Cc1cc2cc(n1)-c1cnn(C)c1OCCC[C@@H](C1CC1)CN1/C(=N/C2=O)Nc2cc(N[C@H]3CC[C@H](N(C)C)C3)ccc21 [Example 135] | 0.062 nM | < 5 nM | < 50 nM | 97.30%. | – | – | – |
| Cc1cc2cc(n1)-c1cnn(C)c1OCCC[C@@H](C1CC1)CN1/C(=N/C2=O)Nc2cc(N[C@@H]3CC[C@H](N(C)C)C3)ccc21 [Example 133] | 0.097 nM | < 5 nM | – | 95.34% | – | – | – |
| Cc1cc2cc(n1)-c1cnn(C)c1OCCC[C@@H](C1CC1)CN1/C(=N/C2=O)Nc2cc(NCCCN3CCCCC3)ccc21 [Example 71] | – | – | – | 82.82% | – | – | AUC(0-inf) [6]: 1.68 µg·h/mL; AUC(0-t) [6]: 1.62 µg·h/mL; Cmax [6]: 0.138 µg/mL; MRT last [6]: 7.85 h; Tmax [6]: 6 h; half-life [6]: 4.5 h |
| Cc1cc2cc(n1)-c1cnn(C)c1OCCC[C@@H](C1CC1)CN1/C(=N/C2=O)Nc2cc(NC(C)C3COC3)ccc21 (stereo partly shown) [Example 37] | 0.022 nM | < 5 nM | < 50 nM | – | 0.013 nM | < 1 nM | – |
| Cc1cc2cc(n1)-c1cnn(C)c1OCCC[C@@H](C1CC1)CN1/C(=N/C2=O)Nc2cc(N(C)C3COC3)ccc21 [Example 41] | 0.016 nM | < 5 nM | < 50 nM | – | 0.0089 nM | < 1 nM | – |
| Cc1cc2cc(n1)-c1cnn(C)c1OCCC[C@@H](C1CC1)CN1/C(=N/C2=O)Nc2ccc(NC(C)CN(C)C)cc21 (stereo partly shown) [Example 63] | 0.013 nM | < 5 nM | < 50 nM | – | 0.008 nM | < 1 nM | – |
| Cc1cc2cc(n1)-c1cnn(C)c1OCCC[C@@H](C1CC1)CN1/C(=N/C2=O)Nc2ccc(N[C@H]3C[C@@H](N(C)C)C3)cc21 [Example 127] | – | – | < 50 nM | 75.00% | 0.12 nM | – | – |
| Cc1cc2cc(n1)-c1cnn(C)c1OCCC[C@@H](C1CC1)CN1/C(=N/C2=O)Nc2ccc(NC3CCN(C(C)C)CC3)cc21 [Example 54] | 0.021 nM | < 5 nM | < 50 nM | – | 0.013 nM | < 1 nM | – |
| Cc1cc2cc(n1)-c1cnn(C)c1OCCC[C@@H](C1CC1)CN1/C(=N/C2=O)Nc2ccc(NCCCN3CCCCC3)cc21 [Example 80] | 0.035 nM | < 5 nM | < 50 nM | – | 0.01 nM | < 1 nM | – |
| Cc1cc2cc(n1)-c1cnn(C)c1OCCC[C@@H](C1CC1)CN1/C(=N/C2=O)Nc2cc(NCC3(C)COC3)ccc21 [Example 40] | 0.021 nM | < 5 nM | < 50 nM | – | 0.014 nM | < 1 nM | – |

Continued, in another order:

| IC50 [1] | IC50 [2] | IC50 [3] | Stability in liver microsomes (residual %, T = 60 min) [4] | IC50 [5] | IC50 [7] | SMILES | other results |
| --- | --- | --- | --- | --- | --- | --- | --- |
| 0.073 nM | < 5 nM | < 50 nM | 83.66% | – | – | Cc1cc2cc(n1)-c1cnn(C)c1OCCC[C@@H](C1CC1)CN1/C(=N/C2=O)Nc2cc(N[C@H]3C[C@H](N(C)C)C3)ccc21 [Example 126] | – |
| 0.04 nM | < 5 nM | – | 81.11% | 0.013 nM | – | Cc1cc2cc(n1)-c1cnn(C)c1OCCC[C@@H](C1CC1)CN1/C(=N/C2=O)Nc2cc(NCCCN3CCCC3)ccc21 [Example 70] | – |
| 0.069 nM | < 5 nM | – | 65.19% | – | – | Cc1cc2cc(n1)-c1cnn(C)c1OCCC[C@@H](C1CC1)CN1/C(=N/C2=O)Nc2ccc(N[C@@H]3CC[C@H](N(C)C)C3)cc21 [Example 134] | – |
| 0.065 nM | – | – | 92.24% | – | – | Cc1cc2cc(n1)-c1cnn(C)c1OCCC[C@@H](C1CC1)CN1/C(=N/C2=O)Nc2cc(N[C@@H]3CC[C@@H](N(C)C)C3)ccc21 [Example 129] | – |
| 0.02 nM | – | – | 73.66% | 0.012 nM | – | Cc1cc2cc(n1)-c1cnn(C)c1OCCC[C@@H](C1CC1)CN1/C(=N/C2=O)Nc2ccc(NC3CCN(C)CC3)cc21 [Example 20] | – |
| 0.037 nM | < 5 nM | < 50 nM | – | 0.011 nM | < 1 nM | Cc1cc2cc(n1)-c1cnn(C)c1OCCC[C@@H](C1CC1)CN1/C(=N/C2=O)Nc2ccc(NCCCN3CCOCC3)cc21 [Example 81] | – |
| – | – | – | 78.57% | – | – | Cc1cc2cc(n1)-c1cnn(C)c1OCCC[C@@H](C1CC1)CN1/C(=N/C2=O)Nc2cc(N[C@@H](C)CN(C)C)ccc21 [Example 68] | AUC(0-inf) [6]: 1.96 µg·h/mL; AUC(0-t) [6]: 1.95 µg·h/mL; Cmax [6]: 0.148 µg/mL; MRT last [6]: 7.54 h; Tmax [6]: 4 h; half-life [6]: 3.04 h |
| 0.056 nM | < 5 nM | – | 56.81% | – | – | Cc1cc2cc(n1)-c1cnn(C)c1OCCC[C@@H](C1CC1)CN1/C(=N/C2=O)Nc2ccc(N[C@@H]3CC[C@@H](N(C)C)C3)cc21 [Example 130] | – |
